# Measured values reported in patent publication US20210220408A1, “ARYL HYDROCARBON RECEPTOR ANTAGONISTS AND METHODS OF USE” (Magenta Therapeutics Inc., priority 2018, published 2021).
# pEC50, pIC50: −log10 of the molar value.
# Assays:
# [1] = target: T1, aryl hydrocarbon receptor (AHR) (Homo sapiens, UniProt P35869); assay: DRE-Luciferase reporter high-throughput screen (AHR antagonist, VAF347-activated)
# T1 sequence (P35869 11-848): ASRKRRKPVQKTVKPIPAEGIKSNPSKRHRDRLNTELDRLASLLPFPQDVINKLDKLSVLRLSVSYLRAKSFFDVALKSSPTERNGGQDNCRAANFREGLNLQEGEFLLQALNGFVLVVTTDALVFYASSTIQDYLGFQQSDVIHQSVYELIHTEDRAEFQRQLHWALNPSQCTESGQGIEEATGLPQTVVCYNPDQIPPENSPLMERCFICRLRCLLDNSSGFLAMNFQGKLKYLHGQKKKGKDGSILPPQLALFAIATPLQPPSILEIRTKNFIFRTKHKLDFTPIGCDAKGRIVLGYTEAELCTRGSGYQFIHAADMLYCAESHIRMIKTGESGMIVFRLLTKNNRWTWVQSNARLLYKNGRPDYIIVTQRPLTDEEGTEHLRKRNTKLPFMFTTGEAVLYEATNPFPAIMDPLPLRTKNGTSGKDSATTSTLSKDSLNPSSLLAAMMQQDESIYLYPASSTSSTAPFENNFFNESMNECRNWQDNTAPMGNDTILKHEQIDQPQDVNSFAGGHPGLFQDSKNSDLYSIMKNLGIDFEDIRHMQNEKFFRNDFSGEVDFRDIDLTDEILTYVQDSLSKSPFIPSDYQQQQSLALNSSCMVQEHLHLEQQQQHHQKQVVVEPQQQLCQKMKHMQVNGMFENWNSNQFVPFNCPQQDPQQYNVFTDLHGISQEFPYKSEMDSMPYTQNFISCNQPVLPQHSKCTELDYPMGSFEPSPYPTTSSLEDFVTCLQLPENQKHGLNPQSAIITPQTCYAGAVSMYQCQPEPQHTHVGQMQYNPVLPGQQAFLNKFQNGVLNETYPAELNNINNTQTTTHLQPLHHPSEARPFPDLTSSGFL
# Text: HepG2 hepatocellular carcinoma cells were transfected with a dioxin-response element (DRE) Firefly luciferase reporter construct. Luciferase transcription was activated with the aryl hydrocarbon receptor (AHR) agonist, VAF347. Addition of an AHR antagonist results in inhibition of the luciferase transcription and a loss of signal in the assay.
# HepG2, a hepatocellular carcinoma cell line, was transfected with the dioxin-response element Firefly luciferase reporter construct using the TransIT-transfection system. Prior to transfection, HepG2 cells (Sigma) were cultured at 90% confluency in Eagle's Modified Essential Medium (Sigma)+2 mM Glutamine (Sigma), +1^% Non Essential Amino Acids (Sigma)+10% Fetal Bovine Serum (Hyclone) and harvested and counted (Biorad TC20 cell counter). OptilMEM serum-free media and TransIT (Mirus) were mixed for transfection in 150 mm dishes by adding 240 μL Transit to 3.0 mL OptiMEM, vortexing briefly to mix, and incubating at room temperature for 20 minutes. The DNA mixture was prepared by adding 80 μg plasmid (pGudLuc6.1 plasmid, Garrison et al., (1996) Fundam. Appl. Toxicol., 30, 194-203), inverting to mix, and incubating at room temperature for 30 minutes. 30×10^6 HepG2 cells were seeded in 30 mL media and 3.3 mL of the DNA, OptiMEM, and TransIT mixture was added dropwise to the plate. The plate was mixed by rocking and incubated at 37° C./5% CO2 overnight. The next day, cells were harvested by aspirating media, washing once with sterile phosphate buffered saline (PBS, Gibco), trypsinzing with 0.05% Trypsin (Corning) and harvesting cells with culture medium, and freezing with Cell Freezing Media (Gibco) at 5 50×10^6 cells/vial in 1 mL/vial.
# Transiently-transfected frozen HepG2 cells with DRE-Luciferase, were thawed in a 37° C. water bath and resuspended in complete media. 4 μL cells at 15,000 cells per well was transferred into the wells of a 1536-well Alphaplate assay plate (PerkinElmer) using TEMPEST liquid dispenser. The plate was centrifuged at 1000 rpm for 1 minute. 30 nL of the controls (1 μM (S)-2-(6-((2-(1H-indol-3-yl)ethyl)amino)-2-(5-fluoropyridin-3-yl)-9H-purin-9-yl)propan-1-ol or 100% DMSO) were transferred to the assay plate using the Pin Tool on BRAVO. 1 μL of VAF347 (15 nM final concentration) in complete media was added to the wells using TEMPEST. The plate was centrifuged at 1000 rpm for 1 minute and incubated at 37° C./5% CO2 overnight. After incubation, the plate was removed from the incubator and brought to room temperature. 2 μL of room temperature Steady-Glo luciferase detection reagent (Promega) was added to the wells with TEMPEST. The plate was centrifuged at 2000 rpm for 1 minute, sealed with clear plastic seal and kept at room temperature for 15 minutes prior to measuring luminescence on ENVISION.
# Approximately 166,000 compounds were screened in 132 1536-well plates in the luciferase reporter gene assay at a final concentration of 12 μM. […] Each compound was tested at 0.1 μM, 1.0 μM, and 10 μM in the DRE luciferase assay and Cell Titer Glo cytotoxicity assay (Promega). […] 512 compounds were selected for 10-point dose-response in the AHR luciferase reporter assay and the Cell Titer Glo cytotoxicity assay.
# [2] = system: mobilized peripheral blood CD34+ cells; assay: CD34+ expansion assay; assay type: cell-based; conditions: Homo sapiens; read-out: CD34 Frequency EC50
# Procedure: Approximately 3,000 mobilized peripheral blood CD34+ cells were plated per well in 384-well plate at a final volume of 45 μL in HSC growth media (SFEM supplemented with Pen/Strep, 50 ng/mL FLT3L, TPO, SCF and IL-6). Serial dilutions were made in HSC growth media with a top final concentration of 10 μM. 5 μL 10× stock was added to each well. The plate was gently tapped on all sides and incubated for 7 days at 37° C./5% CO2. On day 7, the media was aspirated on a Biotek plate washer and 30 μL staining solution was added to the cells with antibodies against CD34-PE, CD90-APC, CD45RA-PE-CF594 in PBS. Cells were washed once in PBS and resuspended in 80 μL for final volume. 40 μL was acquired by flow cytometry (BD Celesta).
Structure (SMILES),pIC50 [1],pEC50 [2]
Cn1cnnc1Sc1ccc(NC(=O)c2cc(Br)ccc2F)cc1 [compound 7],6.00 to 6.30,5.30 to 6.00
FC(F)(F)Oc1ccc(-c2nnc(-c3cccnc3)o2)cc1 [compound 123],6.00 to 6.30,5.30 to 6.00
FC(F)(F)c1ccnc(N/N=C/c2ccc(Cl)cc2Cl)n1 [compound 114],6.00 to 6.30,5.30 to 6.00
Cc1ccc(-n2nnc(-c3nc4ccccc4s3)c2N)cc1 [compound 94],6.00 to 6.30,> 6.30
COc1ccc(-n2nnc(C(=O)Nc3ccccc3C(F)(F)F)c2N)cc1 [compound 28],6.30 to 6.70,5.30 to 6.00
COc1cccc(NC(=O)c2cc3c(=O)n4ccccc4nc3n2C)c1 [compound 18],6.30 to 6.70,> 6.30
Cc1c(Cl)c(=O)oc2cc(OCc3ccc(Cl)cc3)ccc12 [compound 137],6.00 to 6.30,≤ 5.30
Cc1cc(-c2nnc3sc(-c4ccc(F)cc4)nn23)[nH]n1 [compound 71],6.00 to 6.30,6.00 to 6.30
CCCCOc1ccc(C(=O)Nc2cccc(C(=O)OCC(C)C)c2)cc1 [compound 9],6.00 to 6.30,≤ 5.30
Cc1ccc2cc(C(=O)N3CCN(S(=O)(=O)c4cccs4)CC3)[nH]c2c1 [compound 78],6.00 to 6.30,≤ 5.30
CC(=O)N1CCN(c2nc3cc(C(F)(F)F)ccc3s2)CC1 [compound 74],6.00 to 6.30,5.30 to 6.00
Cc1ccc(Nc2ccc(NC(=O)c3ccc(-c4ccccc4)cc3)cc2)nn1 [compound 5],6.00 to 6.30,5.30 to 6.00
O=c1[nH]c(NC2CCCC2)nc2nccc(-c3cccs3)c12 [compound 129],6.30 to 6.70,5.30 to 6.00
Nc1c(-c2nc(-c3ccccc3)cs2)nnn1-c1ccc(F)cc1 [compound 53],6.00 to 6.30,6.00 to 6.30
Cc1ccc(-c2c(C)sc(NC(=O)c3cccnc3)c2C(N)=O)cc1 [compound 42],6.00 to 6.30,5.30 to 6.00
Cc1ccc2nc3sc(C(=O)Nc4cccc(C(F)(F)F)c4)cc3c(=O)n2c1 [compound 15],> 6.70,> 6.30
Cc1ccc(N/N=C/c2ccc(-n3ccnc3)cc2)cc1Cl [compound 98],6.00 to 6.30,5.30 to 6.00
Fc1ccc(-c2cc(-c3ccccc3)nc(-n3cccn3)n2)cc1 [compound 82],> 6.70,6.00 to 6.30
CC(=O)N(C)Cc1cccc(NC(=O)c2n[nH]c3ccccc23)c1 [compound 30],6.00 to 6.30,≤ 5.30

Structure (SMILES),pIC50 [1],pEC50 [2]
CCCSc1nc(N)c(C(=O)Nc2ccccc2)cc1C#N [compound 16],6.30 to 6.70,> 6.30
Cc1ccc(C)c(NC(=O)c2nc3c(s2)CCCN3c2ccc(C)nn2)c1 [compound 29],6.00 to 6.30,5.30 to 6.00
Cc1nn2cc(-c3ccc(-c4ccccc4)cc3)nc2s1 [compound 69],6.30 to 6.70,6.00 to 6.30
Cc1ccn2c(-c3csc(Nc4ccccn4)n3)c(C)nc2c1 [compound 60],6.00 to 6.30,5.30 to 6.00
Cc1cccc(C(=O)Nc2ccc(-c3nc4ncccc4o3)cc2)c1 [compound 4],6.00 to 6.30,6.00 to 6.30
N#Cc1nc(NCC(O)c2ccc(OC(F)F)cc2)ccc1Cl (stereo not shown) [compound 88],6.30 to 6.70,5.30 to 6.00
COc1ccc(C(=O)Nc2ccc3c(c2)oc2ccccc23)cc1[N+](=O)[O-] [compound 14],> 6.70,> 6.30
O=[N+]([O-])c1ccc(-c2cn3nc(C(F)(F)F)sc3n2)cc1 [compound 68],6.30 to 6.70,6.00 to 6.30
CCCc1cc(C(N)=O)c(NC(=O)COc2ccccc2C)s1 [compound 119],6.30 to 6.70,> 6.30
Cc1noc(C)c1COc1cccc(C(=O)/N=c2/sccn2C)c1 [compound 118],> 6.70,> 6.30
COc1ccc(-c2ccc3c(N)c(C(=O)NC4CC4)sc3n2)cc1 [compound 136],6.00 to 6.30,≤ 5.30
Cc1ccc(NC(=O)c2cccc(OCc3c(C)noc3C)c2)c(Cl)c1 [compound 3],6.30 to 6.70,6.00 to 6.30
N#Cc1ccc(C(=O)Nc2cc(C(F)(F)F)ccc2Cl)c(F)c1 [compound 2],6.30 to 6.70,6.00 to 6.30
CCN(C)C(=O)c1cnc(-c2noc3ccccc23)s1 [compound 65],6.00 to 6.30,5.30 to 6.00
COc1ccccc1-c1nnc(SCc2cccc3ccccc23)n1C [compound 96],6.00 to 6.30,5.30 to 6.00
Cc1ccccc1CS(=O)(=O)N1CCc2ccccc2C1 [compound 131],6.00 to 6.30,5.30 to 6.00
FC(F)(F)c1nc(N2CCN(c3ncccn3)CC2)c2ccccc2n1 [compound 76],6.30 to 6.70,≤ 5.30
Cc1cccc(-c2nc(-c3c[nH]c(C(=O)N4CCCC4)c3)cs2)c1 [compound 126],6.00 to 6.30,5.30 to 6.00
Clc1ccc(-c2nc(-c3cnccn3)no2)cc1 [compound 140],6.00 to 6.30,≤ 5.30

Structure (SMILES),pIC50 [1],pEC50 [2]
CCc1ccc(C(=O)Nc2scc(-c3ccc(Cl)cc3)c2C(N)=O)s1 [compound 43],6.30 to 6.70,6.00 to 6.30
Cc1ccc(-c2ccc3c(C)nn(-c4ccccn4)c3n2)cc1 [compound 105],6.30 to 6.70,5.30 to 6.00
Cc1ccc(Cl)cc1-n1ccc2nc(N3CCCCC3)ncc2c1=O [compound 134],6.00 to 6.30,5.30 to 6.00
CSc1ccccc1C(=O)Nc1ccc2[nH]c(-c3ccc(F)cc3)nc2c1 [compound 13],6.00 to 6.30,> 6.30
c1ccc(-c2nnc(-c3csc(-c4cccnc4)n3)o2)cc1 [compound 57],6.30 to 6.70,6.00 to 6.30
Cc1cn2nc(NCCOc3ccc(F)cc3)sc2n1 [compound 70],6.30 to 6.70,6.00 to 6.30
CCC(=O)Nc1ccc(N2Cc3ccccc3C2=O)cc1 [compound 135],6.00 to 6.30,5.30 to 6.00
COc1ccc(NC(=O)c2nnn(-c3cc(C)cc(C)c3)c2C)c(OC)c1 [compound 22],6.00 to 6.30,6.00 to 6.30
Cc1ccc(NC(=O)c2sc3nc(N)c(C#N)cc3c2N)cc1Cl [compound 19],> 6.70,> 6.30
OCCCc1nc2n(n1)C(c1cccc(Br)c1)C=C(c1ccc(Cl)cc1)N2 (stereo not shown) [compound 109],6.30 to 6.70,6.00 to 6.30
CC(C)c1cc(-c2nnc3sc(-c4ccccn4)nn23)[nH]n1 [compound 72],6.30 to 6.70,6.00 to 6.30
Cc1ccc2nc(-c3ccc(NC(=O)COC(=O)c4ccc(O)cc4O)cc3)sc2c1 [compound 138],6.00 to 6.30,≤ 5.30
Cc1cccc(NC(=O)c2cc(-c3ccc(C)cc3O)n[nH]2)c1 [compound 20],6.00 to 6.30,6.00 to 6.30
COc1ccc(-c2n[nH]c3c2C(=O)CC(c2ccccc2)C3)cc1 (stereo not shown) [compound 117],> 6.70,> 6.30
Cc1ccc(Cc2c(C)nc(Nc3nc(C)c4ccc(C)cc4n3)[nH]c2=O)cc1 [compound 124],6.30 to 6.70,5.30 to 6.00
COc1cc(C(F)(F)F)ccc1C(=O)Nc1cccc(N2CCOCC2)c1 [compound 1],6.30 to 6.70,6.00 to 6.30
CCOC(=O)N1CCN(c2nc(CC)nc3sc(C)cc23)CC1 [compound 75],6.30 to 6.70,5.30 to 6.00
Fc1ccc(/C=N\N2CCN(c3ccccn3)CC2)cc1 [compound 77],6.00 to 6.30,≤ 5.30
